The assay concerns the target B56 (Homo sapiens, UniProt Q13362). Briefly: Isothermal titration calorimetry. Particulars: ITC. The assay is classed as binding.

Take KLpSPIIED: the “reduction of binding to B56 on removing residue 676 altogether” value (668KLpSPIIED675 compared with the 668-676 peptides) is ~ 1.7 fold.

In the case of KLpSPIIEDE, the “increase of binding affinity for B56 as the salt concentration is reduced” value (salt concentration 300 mM to 150 mM) is on record as ~ 3.6 fold.

These data come from publication PMC5180209 (Structure (London, England : 1993), 2016).
